Laboratory results reported in paper PMC2584942, “Phase I dose escalation study of telatinib (BAY 57-9352) in patients with advanced solid tumours” (British Journal of Cancer, 2008).
Where two headings read alike, the source gives them in different places.

What was measured:
[1] = system: IL-8; test: Plasma IL-8 level; type: in vivo, human; conditions: after 14 days of multiple dosing
Experimental: The relative changes between cycle 1, day 14 and baseline were calculated for VEGF, sVEGFR-2, bFGF, IL-8, tumour blood flow and tumour vessel permeability as measured by DCE-MRI and diastolic blood pressure (Figure 2C). […] The changes in VEGF and sVEGFR-2 plasma levels, the decrease in tumour blood flow and permeability and the increase in diastolic blood pressure were not predictive for the clinical outcome; there were no statistically significant differences in the change of biomarkers for patients who reached a progression-free survival of >3 months compared with those who stopped treatment during the first 3 months due to progressive disease.

[2] = Plasma pharmacokinetics of telatinib and metabolite BAY 60-8246 (LC-MS-MS, non-compartmental); type: in vivo, human; conditions: for half-life / Tmax / Cmax / AUC(0-t) / AUC: human; for AUC(0-t): read-out: AUC0–12; for AUC: read-out: AUC0–tn
Experimental: Patients with at least one valid pharmacokinetic profile were valid for the pharmacokinetic analysis. Plasma samples were collected at predose and 0.5, 1, 2, 3, 4, 6, 8, and 12 h postdose on day 1 and day 14 of cycle 1 and were analysed for BAY 57-9352 and its demethylated metabolite M-2, BAY 60-8246, using a validated LC-MS-MS analytical method.
Plasma pharmacokinetic parameters, area under the curve from time 0–12 h after dosing (AUC0−12), area under the curve from time 0 to last data point (AUC0−tn), maximum plasma concentration (Cmax), and time to maximum plasma concentration (tmax) of telatinib and its metabolite (BAY 60-8246) as well as half-life of telatinib were calculated by non-compartmental methods using WinNonlin version 4.1.a (Pharsight Corporation). The linear-logarithmic trapezoidal rule was used for calculating AUC. Half-life was calculated by linear least squares regression after logarithmic transformation of the terminal concentrations. Pharmacokinetic parameters were analysed using descriptive statistics.

[3] = system: tumour blood flow/tumour vessel permeability; test: DCE-MRI of tumour blood flow/tumour vessel permeability; type: in vivo, human
Experimental: (§1) The effects of telatinib treatment on the plasma concentrations of sVEGFR-2, VEGF and bFGF were determined from blood samples taken at baseline, on day 14 of cycles 1, 2, 4, 6, etc. and at the final visit. Samples were analysed using the relevant quantitative enzyme-linked immunosorbent assay (ELISA) (R&D Systems Europe, Oxford, UK) according to the manufacturer's instructions. DCE-MRI was performed at baseline, on day 2 (only cycle 1), and on day 14 of cycles 1–3 to assess tumour blood flow/tumour vessel permeability in a subgroup of patients ([Morgan et al, 2003]).
(§2) To assess the biological activity of telatinib, plasma concentration analyses for the angiogenic markers VEGF, sVEGFR-2, bFGF, PDGF and […] were performed at baseline and during the course of the study. Furthermore, DCE-MRI measurements were done at baseline, on days 2 and 14 of cycle 1 and on day 14 of cycles 2 and 3. Evaluable DCE-MRI results were available for a subgroup of patients treated at dose levels of 300 mg BID or higher.

[4] = system: H460 non-small cell lung carcinoma; design: method as in printed; conditions: H460 non-small cell lung carcinoma model; background statement, ref not given; cited from earlier work
[5] = system: VEGFR-2 autophosphorylation; design: method as in printed; conditions: whole-cell assay in vitro; background statement, ref not given; cited from earlier work
[6] = system: PDGFR-β; design: method as in printed; conditions: biochemical assay; background statement, ref not given; cited from earlier work
[7] = design: method as in printed; conditions: in vitro studies; background statement, ref not given; cited from earlier work
[8] = system: sVEGFR-2; test: Plasma sVEGFR-2 concentration (ELISA); type: in vivo, human; conditions: over the course of the study
Experimental: as §1, §2

[9] = system: Colo-205 colon carcinoma; design: method as in printed; conditions: Colo-205 colon carcinoma model; background statement, ref not given; cited from earlier work
[10] = telatinib in plasma, day 14 cycle 1, 75 mg BID oral, 25 mg mesylate tablet, n=4, geometric mean (%CV)
[11] = telatinib in plasma, day 14 cycle 1, 150 mg BID oral, 25 mg mesylate tablet, n=6, geometric mean (%CV)
[12] = telatinib in plasma, day 14 cycle 1, 300 mg BID oral, 25 mg mesylate tablet, n=6, geometric mean (%CV)
[13] = telatinib in plasma, day 14 cycle 1, 600 mg BID oral, 150 mg mesylate tablet, n=11, geometric mean (%CV)
[14] = telatinib in plasma, day 14 cycle 1, 900 mg BID oral, 150 mg mesylate tablet, n=12, geometric mean (%CV)
[15] = telatinib in plasma, day 14 cycle 1, 1200 mg BID oral, 150 mg mesylate tablet, n=6, geometric mean (%CV)
[16] = telatinib in plasma, day 14 cycle 1, 1500 mg BID oral, 150 mg mesylate tablet, n=12, geometric mean (%CV)

For `CNC(=O)c1cc(COc2nnc(Nc3ccc(Cl)cc3)c3ccoc23)ccn1` [telatinib], the IL-8 plasma levels [1] was “no relevant changes”, the Relative bioavailability ([2]; 150 mg tablet formulation compared with 25 mg tablet formulation) was “less when compared with the 25 mg tablet formulation” and the “Dose proportionality of geometric mean Cmax and AUC0−12” value ([2]; BID dosing, plateaued in the 900–1500 mg BID dose range) was “less than dose-proportional”. For the same compound, the “Increase in geometric mean Cmax between dose levels” value ([2]; between the 300 and 600 mg BID dose level) was “two-fold”, the half-life ([2]; plasma, oral, telatinib, across dose levels, discussion statement, read-out: half-life) was 6.6 to 10.9 h and the Tmax ([2]; plasma, telatinib, oral, BID dosing, read-out: median tmax) was no more than 3 h. The Cmax [2, 10] was 212 ng/mL, the AUC(0-t) [2, 10] was 1390 ng·h/mL and the AUC [2, 10] was 1380 ng·h/mL. It also gave a half-life ([2]; telatinib in plasma, day 14 cycle 1, 75 mg BID oral, 25 mg mesylate tablet, n=4, geometric mean (%CV), read-out: t1/2 (converted)) of 7.4 h, a Tmax ([2]; telatinib in plasma, day 14 cycle 1, 75 mg BID oral, 25 mg mesylate tablet, n=4, median (range), read-out: tmax) of 2.1 h and a Cmax [2, 11] of 219 ng/mL. The AUC(0-t) [2, 11] was 1730 ng·h/mL, the AUC [2, 11] was 1750 ng·h/mL and the half-life ([2]; telatinib in plasma, day 14 cycle 1, 150 mg BID oral, 25 mg mesylate tablet, n=6, geometric mean (%CV), read-out: t1/2 (converted)) was 10.9 h. The Tmax ([2]; telatinib in plasma, day 14 cycle 1, 150 mg BID oral, 25 mg mesylate tablet, n=6, median (range), read-out: tmax) was 3 h, the AUC(0-t) ([2]; telatinib in plasma, day 14 cycle 1, 300 mg BID oral, 25 mg mesylate tablet, n=6 (sample size reduced by 2), geometric mean (%CV)) was 2860 ng·h/mL and the half-life ([2]; telatinib in plasma, day 14 cycle 1, 300 mg BID oral, 25 mg mesylate tablet, n=6 (sample size reduced by 2), geometric mean (%CV), read-out: t1/2 (converted)) was 8 h. The Cmax [2, 12] was 389 ng/mL, the AUC [2, 12] was 1920 ng·h/mL and the Tmax ([2]; telatinib in plasma, day 14 cycle 1, 300 mg BID oral, 25 mg mesylate tablet, n=6, median (range), read-out: tmax) was 1.5 h. It also gave a Cmax [2, 13] of 810 ng/mL, an AUC(0-t) [2, 13] of 5430 ng·h/mL and an AUC [2, 13] of 5430 ng·h/mL. For the same compound, the half-life ([2]; telatinib in plasma, day 14 cycle 1, 600 mg BID oral, 150 mg mesylate tablet, n=11, geometric mean (%CV), read-out: t1/2 (converted)) was 8.7 h, the Tmax ([2]; telatinib in plasma, day 14 cycle 1, 600 mg BID oral, 150 mg mesylate tablet, n=11, median (range), read-out: tmax) was 2.1 h and the half-life ([2]; telatinib in plasma, day 14 cycle 1, 900 mg BID oral, 150 mg mesylate tablet, n=12 (sample size reduced by 2), geometric mean (%CV), read-out: t1/2 (converted)) was 5.6 h. It also gave a Cmax [2, 14] of 1280 ng/mL, an AUC(0-t) [2, 14] of 7300 ng·h/mL and an AUC [2, 14] of 7410 ng·h/mL. It also gave a Tmax ([2]; telatinib in plasma, day 14 cycle 1, 900 mg BID oral, 150 mg mesylate tablet, n=12, median (range), read-out: tmax) of 2 h, a Cmax [2, 15] of 1140 ng/mL and an AUC(0-t) [2, 15] of 7260 ng·h/mL. The AUC [2, 15] was 7100 ng·h/mL, the half-life ([2]; telatinib in plasma, day 14 cycle 1, 1200 mg BID oral, 150 mg mesylate tablet, n=6, geometric mean (%CV), read-out: t1/2 (converted)) was 5.6 h and the Tmax ([2]; telatinib in plasma, day 14 cycle 1, 1200 mg BID oral, 150 mg mesylate tablet, n=6, median (range), read-out: tmax) was 2.5 h. It also gave a Cmax [2, 16] of 964 ng/mL, an AUC(0-t) [2, 16] of 6290 ng·h/mL and an AUC [2, 16] of 6170 ng·h/mL. The half-life ([2]; telatinib in plasma, day 14 cycle 1, 1500 mg BID oral, 150 mg mesylate tablet, n=12, geometric mean (%CV), read-out: t1/2 (converted)) was 6.6 h, the Tmax ([2]; telatinib in plasma, day 14 cycle 1, 1500 mg BID oral, 150 mg mesylate tablet, n=12, median (range), read-out: tmax) was 2.5 h and the median tmax ([2]; telatinib, oral, 75 mg BID to 1500 mg BID dose range) was no more than 3 h. For the same compound, the “iAUC60 for the gadolinium curve” value ([3]; DCE-MRI, dose levels of 300 mg BID or higher) was “decrease”, the “telatinib AUC0−12 at which substantial decreases in the gadolinium iAUC60 ratio were observed” value ([3]; day 14 of cycle 1) was “about 4 mg h l^−1” and the “total daily dose at which substantial decreases in the gadolinium iAUC60 ratio were observed” value ([3]; day 14 of cycle 1) was no less than 600 mg. The “tumour growth in vivo” value [4] was “potent, dose-dependent reduction in tumour growth”, the VEGFR-2 autophosphorylation [5] was “inhibited” and the “PDGFR-β tyrosine kinase activity” value [6] was “potent inhibitor”. For the same compound, the “drug–drug interactions due to displacement from plasma protein-binding sites” value [7] was “unlikely”, the sVEGFR-2 levels [8] was “dose-dependent decrease” and the “tumour growth in vivo” value [9] was “potent, dose-dependent reduction in tumour growth”.
